Measured values from patent publication US20220323437A1, “METHODS FOR TREATING PULMONARY ARTERIAL HYPERTENSION” (ACTELION PHARMACEUTICALS LTD, priority 2019, published 2022).
Values joined by “and” are separate entries in the source; they are usually repeats but may differ in a detail not shown here. Identical values can stand only once.

Test: Adverse events during switch from oral to i.v. selexipag and back in subjects with stable PAH (Phase 3 study)
Assay type: in vivo, human
Method: This was a prospective, multicenter, open-label, single-sequence, cross-over, Phase 3 study. Based on the dose of selexipag received at study entry, subjects were allocated to one of the following groups, selexipag 200-1000 μg b.i.d. or selexipag 1200-1600 μg b.i.d. See, FIG. 1. The study comprised the following periods:
(ii) Treatment and observation period: The treatment and observation period included the following consecutive periods: • Period 1 included oral selexipag pre-treatment period for 1 day, in-hospital. This period started with intake of the morning dose of oral selexipag on Day 1 at Visit 2 and ended the following day, before initiation of the first infusion of i.v. selexipag. • Period 2 included i.v. selexipag treatment period for 36 hours [3 infusions], in-hospital. This period started in the morning of Day 2 at Visit 2 with the start of the first infusion of i.v. selexipag and ended in the evening of Day 3 at Visit 2 before the evening administration of oral selexipag. Administration of oral selexipag was interrupted during the i.v. selexipag treatment period. • Period 3 included oral selexipag post-treatment period for 7 to 11 day. This period started in the evening of Day 3 at Visit 2 with the administration of oral selexipag and ended 7-11 days later, at Visit 3.
The endpoints analyzed for Period 1, Period 2, and Period 3 and follow-up period combined included discontinuations due to prostacyclin-associated AEs, adverse events (AEs) and serious adverse events (SAEs), prostacyclin-associated AEs, AEs related to injection site reactions, and PAH-related AEs.
The endpoints analyzed for (i) Period 1, Period 2, and Period 3 and follow-up period combined (ii) Period 1 and Period 2 combined, and (iii) Period 2 and Period 3 combined included discontinuations due to prostacyclin-associated AEs, discontinuations due to any AEs, AEs and SAEs, prostacyclin-associated AEs, PAH-related AEs, change from baseline in vital signs (systolic blood pressure [SBP], diastolic blood pressure [DBP], and pulse rate) and body weight, ECG abnormalities, marked laboratory abnormalities, and change from baseline in WHO FC.
The statistical analysis was mainly descriptive, without formal hypothesis testing. Exact Pearson-Clopper CIs for the incidence of AEs were computed.

[1] = Overall (Periods 1, 2, and 3, and safety-follow-up combined), 20 subjects
[2] = Overall (Periods 1, 2, and 3 with safety-follow-up combined)
[3] = Period 1 (oral selexipag), total, N = 20
[4] = Period 1 (oral selexipag, 24 h), high dose cohort (1200-1600 μg), N = 12
[5] = Period 1 (oral selexipag, 24 h), high dose cohort (1200-1600 μg), N = 12, listed as Uptravi
[6] = Period 1 (oral selexipag, 24 h), low dose cohort (200-1000 μg), N = 8
[7] = Period 1 (oral selexipag, 24 h), total, N = 20
[8] = Period 2 (i.v. selexipag, 36 h), high dose cohort (1200-1600 μg), N = 12
[9] = Period 2 (i.v. selexipag, 36 h), low dose cohort (200-1000 μg), N = 8
[10] = Period 2 (i.v. selexipag, 36 h), total, N = 20
[11] = Period 2 (intravenous selexipag treatment), high dose cohort (1200-1600 μg), N = 12

CC(C)N(CCCCOCC(=O)NS(C)(=O)=O)c1cnc(-c2ccccc2)c(-c2ccccc2)n1 [selexipag, 2-{4-[(5,6-diphenylpyrazin-2-yl)(propan-2-yl)amino]butoxy}-N-(methanesulfonyl)acetamide]
most frequently reported AE preferred term: headache [1]: 4 subjects
subjects with at least 1 AE during the study [1]: 15 subjects
subjects with mild intensity AEs [2]: 8 subjects
subjects with moderate intensity AEs [2]: 5 subjects
subjects with severe intensity AEs [2]: 1 subject
Subjects with at least one prostacyclin-associated AE (Period 1 (oral selexipag), high dose cohort (1200-1600 μg), N = 12): 0 n (%)
Subjects with at least one prostacyclin-associated AE (Period 1 (oral selexipag), low dose cohort (200-1000 μg), N = 8): 0 n (%)
Deaths [3]: 0 n (%)
Discontinuations due to prostacyclin-associated AEs [3]: 0 n (%)
Number of subjects with at least one Prostacyclin-associated AEs [3]: 0 n (%)
Number of subjects with at least one Serious adverse events (SAEs) [3]: 0 n (%)
SAE incidence: Blindness unilateral [3]: 0 n (%)
SAE incidence: Rhegmatogenous retinal detachment [3]: 0 n (%)
SAE incidence: Right ventricular failure [3]: 0 n (%)
AE incidence: Sleep disorder [4]: 1 n (%)
AE incidence: Swelling face [4]: 0 n (%)
Subjects with at least one AE [4]: 1 n (%)
AE incidence: Sleep disorder [5]: 1 (8.3) n (%)
Subjects with at least one AE [5]: 1 (8.3) n (%)
AE incidence: Sleep disorder [6]: 0 n (%)
AE incidence: Swelling face [6]: 1 (12.5) n (%)
Subjects with at least one AE [6]: 1 (12.5) n (%)
AE incidence: Sleep disorder [7]: 1 n (%)
AE incidence: Swelling face [7]: 1 n (%)
Subjects with at least one AE [7]: 2 n (%) and 2 (10.0) n (%)
Subjects with at least one AE (Period 1 (oral selexipag, 24 h), total, N = 20, listed as Uptravi): 2 n (%)
prematurely discontinued study treatment (Period 2 (3 i.v. infusions of selexipag)): No subject
subjects with clinically significant injection site reactions as determined by the investigator (Period 2 (i.v. selexipag)): two
AE incidence: Diarrhoea [8]: 1 n (%)
AE incidence: Dysgeusia [8]: 0 n (%)
AE incidence: Epistaxis [8]: 0 n (%)
AE incidence: Flatulence [8]: 1 n (%)
AE incidence: Flushing [8]: 1 n (%)
AE incidence: Headache [8]: 3 n (%)
AE incidence: Incorrect drug administration rate [8]: 0 n (%)
AE incidence: Infusion site erythema [8]: 2 n (%)
AE incidence: Infusion site swelling [8]: 1 n (%)
AE incidence: Lymphadenopathy [8]: 0 n (%)
AE incidence: Myalgia [8]: 1 n (%)
AE incidence: Nasal congestion [8]: 1 n (%)
AE incidence: Nausea [8]: 1 n (%)
AE incidence: Pain in jaw [8]: 1 n (%)
AE incidence: Tachycardia [8]: 0 n (%)
AE incidence: Tension headache [8]: 1 n (%)
AE incidence: Vascular access complication [8]: 1 n (%)
AE incidence: Vomiting [8]: 1 n (%)
Subjects with at least one AE [8]: 6 n (%)
AE incidence: Diarrhoea [9]: 0 n (%)
AE incidence: Dysgeusia [9]: 1 (12.5) n (%)
AE incidence: Epistaxis [9]: 1 (12.5) n (%)
AE incidence: Flatulence [9]: 0 n (%)
AE incidence: Flushing [9]: 0 n (%)
AE incidence: Headache [9]: 1 (12.5) n (%)
AE incidence: Incorrect drug administration rate [9]: 1 (12.5) n (%)
AE incidence: Infusion site erythema [9]: 0 n (%)
AE incidence: Infusion site swelling [9]: 0 n (%)
AE incidence: Lymphadenopathy [9]: 1 (12.5) n (%)
AE incidence: Myalgia [9]: 0 n (%)
AE incidence: Nasal congestion [9]: 0 n (%)
AE incidence: Nausea [9]: 0 n (%)
AE incidence: Pain in jaw [9]: 0 n (%)
AE incidence: Tachycardia [9]: 1 (12.5) n (%)
AE incidence: Tension headache [9]: 0 n (%)
AE incidence: Vascular access complication [9]: 0 n (%)
AE incidence: Vomiting [9]: 0 n (%)
Subjects with at least one AE [9]: 4 (50.0) n (%)
AE incidence: Diarrhoea [10]: 1 n (%)
AE incidence: Dysgeusia [10]: 1 n (%)
AE incidence: Epistaxis [10]: 1 n (%)
AE incidence: Flatulence [10]: 1 n (%)
AE incidence: Flushing [10]: 1 n (%)
AE incidence: Headache [10]: 4 n (%)
AE incidence: Incorrect drug administration rate [10]: 1 n (%)
AE incidence: Infusion site erythema [10]: 2 n (%)
AE incidence: Infusion site swelling [10]: 1 n (%)
AE incidence: Lymphadenopathy [10]: 1 n (%)
AE incidence: Myalgia [10]: 1 n (%)
AE incidence: Nasal congestion [10]: 1 n (%)
AE incidence: Nausea [10]: 1 n (%)
AE incidence: Pain in jaw [10]: 1 n (%)
AE incidence: Tachycardia [10]: 1 n (%)
AE incidence: Tension headache [10]: 1 n (%)
AE incidence: Vascular access complication [10]: 1 n (%)
AE incidence: Vomiting [10]: 1 n (%)
Subjects with at least one AE [10]: 10 n (%)
Prostacyclin-associated AE incidence: Diarrhoea [11]: 1 n (%)
Prostacyclin-associated AE incidence: Flushing [11]: 1 n (%)
Prostacyclin-associated AE incidence: Headache [11]: 3 n (%)
Prostacyclin-associated AE incidence: Myalgia [11]: 1 n (%)
Prostacyclin-associated AE incidence: Nausea [11]: 1 n (%)
Prostacyclin-associated AE incidence: Pain in jaw [11]: 1 n (%)
Prostacyclin-associated AE incidence: Tension headache [11]: 1 n (%)
